In series [1] the test system is patients with type II diabetes. Nature of the series: Treatment of patients with decompensated type II diabetes. The format is in vivo, human. Particulars: five patients, 1 mg every 12 hours intravenously for eight days. How it is done:
It is exemplified with ten patients who had diabetic decompensation and reached a state of severity, that let them to be treated in the ICU of the hospital “Luis Díaz Soto” in Havana. Five of these patients were treated with a pharmaceutical composition comprising the peptide identified as SEQ ID NO: 1, so that a peptide dose of 1 mg every 12 hours was administered intravenously for eight days. In addition, they received the standard therapy needed for these cases.

Series [2] relates to patients with RA. As to conditions: cited from earlier work.
Series [3] deals with patients with ischemic heart disease. Nature of the series: Treatment of patients with ischemic heart disease and high blood pressure. The format is in vivo, human. As to conditions: six patients, 1 mg every 12 hours intravenously for seven days. Here is the method: It is exemplified with the results of six patients. They presented ischemic heart disease, associated with high blood pressure, which produced a state of severity. They were treated in the Intermediate Care Unit (IMCU) of the “Luis Diaz Soto” hospital in Havana. These patients were treated with a pharmaceutical composition comprising the peptide identified as SEQ ID NO: 1, so that a peptide dose of 1 mg every 12 hours was administered intravenously for seven days. In addition, they received the standard therapy needed for these cases.

No end group written: not given here.

As to “SIDLKDKYKNIGAKLVQLVANNTNEEA [SEQ ID NO: 1]”, the “side effects (clinical and imaging evaluation, blood biochemistry, differential blood count)” value in series [1] and in series [3] was “No side effects were observed” in each case. The safety result in series [2] is given as “proved to be safe”.
